Laboratory results published in ChEMBL document CHEMBL4229511, “Synthesis and biological activity investigation of azole and quinone hybridized phosphonates” (Bioorg Med Chem Lett, 2018).
≈ marks a conversion by molar mass, not a printed value.

Assays:
Cryptococcus neoformans = assay: Antifungal activity against Cryptococcus neoformans H99 by CLSI […] protocol based method; format: functional; details: var grubii H99
Candida albicans [1] = assay: Antifungal activity against Candida albicans MYA2876 by CLSI […] protocol based method; format: functional
Escherichia coli = assay: Antibacterial activity against Escherichia coli ATCC 25922 after 18 hrs; format: functional; details: ATCC 25922, 18 h
Staphylococcus aureus [2] = assay: Antibacterial activity against Staphylococcus aureus ATCC 33591 after 18 hrs; format: functional; details: ATCC 33591, 18 h
Fusarium graminearum = assay: Antifungal activity against Fusarium graminearum by CLSI […] protocol based method; format: functional
HeLa [3] = assay: Cytotoxicity against human HeLa cells up to 10 ug/ml after 24 hrs by MTT assay; format: cell-based
HeLa [4] = assay: Cytotoxicity against human HeLa cells after 24 hrs by MTT assay; format: cell-based
Rhodotorula mucilaginosa = assay: Antifungal activity against Rhodotorula pilimanae by CLSI […] protocol based method; format: functional
Aspergillus flavus = assay: Antifungal activity against Aspergillus flavus by CLSI […] protocol based method; format: functional
Staphylococcus aureus [5] = assay: Antibacterial activity against Staphylococcus aureus ATCC 43300 after 18 hrs; format: functional; details: ATCC 43300, 18 h
Staphylococcus aureus [6] = assay: Antibacterial activity against Staphylococcus aureus ATCC 25923 after 18 hrs; format: functional; details: ATCC 25923, 18 h
Candida albicans [7] = assay: Antifungal activity against Candida albicans ATCC 64124 by CLSI […] protocol based method; format: functional

## O=C1c2ccccc2C(=O)c2c1nnn2CCCP(=O)([O-])[O-].[K+].[K+]
Cryptococcus neoformans
  MIC: 32 µg/mL
Candida albicans [1]
  MIC: 32 µg/mL
Escherichia coli
  MIC: > 256 µg/mL
Staphylococcus aureus [2]
  MIC: 128 µg/mL
Fusarium graminearum
  MIC: 32 µg/mL
HeLa [3]
  Activity: Non-Toxic
HeLa [4]
  IC50: 88 µg/mL
Rhodotorula mucilaginosa
  MIC: 32 µg/mL
Aspergillus flavus
  MIC: 16 to 32 µg/mL
Staphylococcus aureus [5]
  MIC: 64 to 128 µg/mL
Staphylococcus aureus [6]
  MIC: 32 µg/mL
Candida albicans [7]
  MIC: 32 µg/mL

## CCOP(=O)(CCCn1nnc2c1C(=O)c1ccccc1C2=O)OCC
Cryptococcus neoformans
  MIC: 16 µg/mL (≈ 42.4 µM)
Candida albicans [1]
  MIC: > 128 µg/mL
Escherichia coli
  MIC: > 128 µg/mL
Staphylococcus aureus [2]
  MIC: 64 µg/mL (≈ 170 µM)
Fusarium graminearum
  MIC: 16 µg/mL (≈ 42.4 µM)
HeLa [4]
  IC50: 6.97 µg/mL (≈ 18.5 µM)
Rhodotorula mucilaginosa
  MIC: 64 to 128 µg/mL (≈ 170 to 339 µM)
Aspergillus flavus
  MIC: 64 to 128 µg/mL (≈ 170 to 339 µM)
Staphylococcus aureus [5]
  MIC: 64 to 128 µg/mL (≈ 170 to 339 µM)
Staphylococcus aureus [6]
  MIC: 64 µg/mL (≈ 170 µM)
Candida albicans [7]
  MIC: > 128 µg/mL

## O=C1c2ccccc2C(=O)c2c1nnn2CCCCCCCCP(=O)([O-])[O-].[K+].[K+]
Cryptococcus neoformans
  MIC: 32 µg/mL
Candida albicans [1]
  MIC: 8 to 16 µg/mL
Escherichia coli
  MIC: > 256 µg/mL
Staphylococcus aureus [2]
  MIC: 256 µg/mL
Fusarium graminearum
  MIC: 32 µg/mL
HeLa [3]
  Activity: Non-Toxic
HeLa [4]
  IC50: 95.3 µg/mL
Rhodotorula mucilaginosa
  MIC: > 128 µg/mL
Aspergillus flavus
  MIC: 8 to 16 µg/mL
Staphylococcus aureus [5]
  MIC: > 256 µg/mL
Staphylococcus aureus [6]
  MIC: 64 µg/mL
Candida albicans [7]
  MIC: 16 to 32 µg/mL

## CCCCCCCCS(=O)(=O)OC[C@H]1O[C@H](O[C@@H]2[C@@H](O)[C@H](O[C@H]3O[C@H](CN)[C@@H](O)[C@H](O)[C@H]3O)[C@@H](N)C[C@H]2N)[C@H](O)[C@@H](N)[C@@H]1O
Cryptococcus neoformans
  MIC: 4 µg/mL (≈ 6.05 µM)
Candida albicans [1]
  MIC: 64 µg/mL (≈ 96.9 µM)
Fusarium graminearum
  MIC: 32 µg/mL (≈ 48.4 µM)
Rhodotorula mucilaginosa
  MIC: 4 µg/mL (≈ 6.05 µM)
Aspergillus flavus
  MIC: > 256 µg/mL
Candida albicans [7]
  MIC: 256 µg/mL (≈ 387 µM)

## CCOP(=O)(CCCCn1nnc2c1C(=O)c1ccccc1C2=O)OCC
Cryptococcus neoformans
  MIC: 32 µg/mL (≈ 81.8 µM)
Candida albicans [1]
  MIC: > 128 µg/mL
Escherichia coli
  MIC: > 128 µg/mL
Staphylococcus aureus [2]
  MIC: 128 µg/mL (≈ 327 µM)
Fusarium graminearum
  MIC: 8 µg/mL (≈ 20.4 µM)
HeLa [4]
  IC50: 9.11 µg/mL (≈ 23.3 µM)
Rhodotorula mucilaginosa
  MIC: 128 µg/mL (≈ 327 µM)
Aspergillus flavus
  MIC: > 128 µg/mL
Staphylococcus aureus [5]
  MIC: 64 to 128 µg/mL (≈ 164 to 327 µM)
Staphylococcus aureus [6]
  MIC: 128 µg/mL (≈ 327 µM)
Candida albicans [7]
  MIC: > 128 µg/mL

## O=C1c2ccccc2C(=O)c2c1nnn2CCCCCCCCCCP(=O)([O-])[O-].[K+].[K+]
Cryptococcus neoformans
  MIC: 32 µg/mL
Candida albicans [1]
  MIC: 128 µg/mL
Escherichia coli
  MIC: > 256 µg/mL
Staphylococcus aureus [2]
  MIC: > 256 µg/mL
Fusarium graminearum
  MIC: 32 µg/mL
HeLa [3]
  Activity: Non-Toxic
HeLa [4]
  IC50: > 100 µg/mL
Rhodotorula mucilaginosa
  MIC: 64 µg/mL
Staphylococcus aureus [5]
  MIC: > 256 µg/mL
Staphylococcus aureus [6]
  MIC: 32 to 64 µg/mL
Candida albicans [7]
  MIC: 128 µg/mL

## CCOP(=O)(CCCCCCCCn1nnc2c1C(=O)c1ccccc1C2=O)OCC
Cryptococcus neoformans
  MIC: > 128 µg/mL
Candida albicans [1]
  MIC: > 128 µg/mL
Escherichia coli
  MIC: > 128 µg/mL
Staphylococcus aureus [2]
  MIC: 32 µg/mL (≈ 71.5 µM)
Fusarium graminearum
  MIC: 1 to 2 µg/mL (≈ 2.23 to 4.47 µM)
HeLa [3]
  Activity: Non-Toxic
HeLa [4]
  IC50: 52 µg/mL (≈ 116 µM)
Rhodotorula mucilaginosa
  MIC: > 128 µg/mL
Aspergillus flavus
  MIC: > 128 µg/mL
Staphylococcus aureus [5]
  MIC: 16 to 32 µg/mL (≈ 35.8 to 71.5 µM)
Staphylococcus aureus [6]
  MIC: 64 µg/mL (≈ 143 µM)
Candida albicans [7]
  MIC: > 128 µg/mL

## C[C@@H](c1ncncc1F)[C@](O)(Cn1cncn1)c1ccc(F)cc1F [VORICONAZOLE]
Cryptococcus neoformans
  MIC: 0.125 µg/mL (≈ 0.358 µM)
Candida albicans [1]
  MIC: 0.125 µg/mL (≈ 0.358 µM)
Fusarium graminearum
  MIC: 32 µg/mL (≈ 91.6 µM)
Rhodotorula mucilaginosa
  MIC: 8 µg/mL (≈ 22.9 µM)
Aspergillus flavus
  MIC: 1 µg/mL (≈ 2.86 µM)
Candida albicans [7]
  MIC: > 256 µg/mL

## O=C1c2ccccc2C(=O)c2c1nnn2CCCCCCP(=O)([O-])[O-].[K+].[K+]
Cryptococcus neoformans
  MIC: 64 µg/mL
Candida albicans [1]
  MIC: 32 to 64 µg/mL
Escherichia coli
  MIC: > 256 µg/mL
Staphylococcus aureus [2]
  MIC: 64 µg/mL
Fusarium graminearum
  MIC: 64 µg/mL
HeLa [3]
  Activity: Non-Toxic
HeLa [4]
  IC50: 73.6 µg/mL
Rhodotorula mucilaginosa
  MIC: 128 µg/mL
Aspergillus flavus
  MIC: 64 µg/mL
Staphylococcus aureus [5]
  MIC: 64 µg/mL
Staphylococcus aureus [6]
  MIC: 32 to 64 µg/mL
Candida albicans [7]
  MIC: 32 to 64 µg/mL

## O=C1c2ccccc2C(=O)c2c1nnn2CCP(=O)([O-])[O-].[K+].[K+]
Cryptococcus neoformans
  MIC: 64 µg/mL
Candida albicans [1]
  MIC: > 128 µg/mL
Escherichia coli
  MIC: > 256 µg/mL
Staphylococcus aureus [2]
  MIC: 128 µg/mL
Fusarium graminearum
  MIC: 32 µg/mL
HeLa [3]
  Activity: Non-Toxic
HeLa [4]
  IC50: 91.8 µg/mL
Rhodotorula mucilaginosa
  MIC: 128 µg/mL
Aspergillus flavus
  MIC: > 128 µg/mL
Staphylococcus aureus [5]
  MIC: 128 µg/mL
Staphylococcus aureus [6]
  MIC: 32 µg/mL
Candida albicans [7]
  MIC: > 128 µg/mL

## CCOP(=O)(CCCCCCCCCCn1nnc2c1C(=O)c1ccccc1C2=O)OCC
Cryptococcus neoformans
  MIC: > 128 µg/mL
Candida albicans [1]
  MIC: > 128 µg/mL
Escherichia coli
  MIC: > 128 µg/mL
Staphylococcus aureus [2]
  MIC: 64 µg/mL (≈ 135 µM)
Fusarium graminearum
  MIC: 0.5 µg/mL (≈ 1.05 µM)
HeLa [3]
  Activity: Non-Toxic
HeLa [4]
  IC50: 65.7 µg/mL (≈ 138 µM)
Rhodotorula mucilaginosa
  MIC: > 128 µg/mL
Staphylococcus aureus [5]
  MIC: 16 to 64 µg/mL (≈ 33.6 to 135 µM)
Staphylococcus aureus [6]
  MIC: > 128 µg/mL
Candida albicans [7]
  MIC: > 128 µg/mL

## CCOP(=O)(CCn1nnc2c1C(=O)c1ccccc1C2=O)OCC
Cryptococcus neoformans
  MIC: 16 µg/mL (≈ 44 µM)
Candida albicans [1]
  MIC: > 128 µg/mL
Escherichia coli
  MIC: > 128 µg/mL
Staphylococcus aureus [2]
  MIC: 64 µg/mL (≈ 176 µM)
Fusarium graminearum
  MIC: 16 µg/mL (≈ 44 µM)
HeLa [4]
  IC50: 13.8 µg/mL (≈ 38.1 µM)
Rhodotorula mucilaginosa
  MIC: 64 to 128 µg/mL (≈ 176 to 352 µM)
Aspergillus flavus
  MIC: 64 to 128 µg/mL (≈ 176 to 352 µM)
Staphylococcus aureus [5]
  MIC: 64 µg/mL (≈ 176 µM)
Staphylococcus aureus [6]
  MIC: 64 µg/mL (≈ 176 µM)
Candida albicans [7]
  MIC: > 128 µg/mL

## CCOP(=O)(CCCCCCn1nnc2c1C(=O)c1ccccc1C2=O)OCC
Cryptococcus neoformans
  MIC: 32 µg/mL (≈ 76.3 µM)
Candida albicans [1]
  MIC: > 128 µg/mL
Escherichia coli
  MIC: > 128 µg/mL
Staphylococcus aureus [2]
  MIC: 64 µg/mL (≈ 153 µM)
Fusarium graminearum
  MIC: 4 µg/mL (≈ 9.54 µM)
HeLa [4]
  IC50: 47 µg/mL (≈ 112 µM)
Rhodotorula mucilaginosa
  MIC: 64 to 128 µg/mL (≈ 153 to 305 µM)
Aspergillus flavus
  MIC: > 128 µg/mL
Staphylococcus aureus [5]
  MIC: 32 to 64 µg/mL (≈ 76.3 to 153 µM)
Staphylococcus aureus [6]
  MIC: 32 to 64 µg/mL (≈ 76.3 to 153 µM)
Candida albicans [7]
  MIC: > 128 µg/mL
